The experiment has as its target T1, recombinant human SAE enzyme (Homo sapiens, UniProt Q9UBT2).
T1 sequence (Q9UBT2 1-640): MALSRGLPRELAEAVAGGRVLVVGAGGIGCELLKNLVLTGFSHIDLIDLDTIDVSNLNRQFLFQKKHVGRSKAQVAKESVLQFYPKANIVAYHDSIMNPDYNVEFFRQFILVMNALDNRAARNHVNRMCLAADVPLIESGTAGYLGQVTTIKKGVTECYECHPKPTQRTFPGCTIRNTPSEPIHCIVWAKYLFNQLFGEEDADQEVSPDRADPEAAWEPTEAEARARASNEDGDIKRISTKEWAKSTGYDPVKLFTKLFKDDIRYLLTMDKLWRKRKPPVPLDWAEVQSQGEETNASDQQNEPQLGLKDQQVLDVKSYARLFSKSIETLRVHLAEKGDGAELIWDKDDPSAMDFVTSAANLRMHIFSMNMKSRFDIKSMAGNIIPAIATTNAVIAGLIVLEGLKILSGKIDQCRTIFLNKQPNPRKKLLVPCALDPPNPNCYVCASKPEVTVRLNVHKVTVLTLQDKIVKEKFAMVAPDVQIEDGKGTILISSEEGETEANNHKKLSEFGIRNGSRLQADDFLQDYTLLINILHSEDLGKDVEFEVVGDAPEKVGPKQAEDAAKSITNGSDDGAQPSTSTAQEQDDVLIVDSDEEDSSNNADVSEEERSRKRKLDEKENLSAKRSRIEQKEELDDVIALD
T1 sequence (Q9UBE0 1-346 partner): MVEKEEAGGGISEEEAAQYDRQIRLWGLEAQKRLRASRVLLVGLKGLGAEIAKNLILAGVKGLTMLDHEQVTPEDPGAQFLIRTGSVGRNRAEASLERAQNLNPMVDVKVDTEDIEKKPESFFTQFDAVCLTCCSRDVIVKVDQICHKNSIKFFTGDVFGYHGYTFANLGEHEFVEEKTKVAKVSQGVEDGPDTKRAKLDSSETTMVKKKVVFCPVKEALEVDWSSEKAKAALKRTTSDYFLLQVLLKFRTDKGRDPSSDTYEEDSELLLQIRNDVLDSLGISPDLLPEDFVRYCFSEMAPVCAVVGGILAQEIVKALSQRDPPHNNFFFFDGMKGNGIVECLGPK
Nature of the experiment: SAE HTRF Enzyme Assay. Type of experiment: biochemical. Particulars: for IC50: class symbols A-C; for inhibition at 0.111 µM: read-out: Percent Inhibition. The procedure, abridged: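 Sumoylation of Ubc9-GST by recombinant human SAE was followed by time-resolved FRET between Eu-cryptate anti-Flag and allophycocyanin anti-GST antibodies. The enzyme step used low ATP (0.5 μM) at pH 7.5 and ran 105 min at 24° C.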

Where [1] appears, read: compound concentration 0.111 μM.

On to `NS(=O)(=O)OC[C@H]1C[C@@H](Nc2ncncc2C(=O)c2ccn(CC#CCC3CCOCC3)n2)C[C@@H]1O` [Compound I-12, [(1R,2S,4R)-2-hydroxy-4-{[5-({1-[4-(tetrahydro-2H-pyran-4-yl)but-2-yn-1-yl]-1H-pyrazol-3-yl}carbonyl)pyrimidin-4-yl]amino}cyclopentyl]methyl sulfamate], for which the IC50 was 0.1 to 1 µM. For the same compound, the inhibition at 0.111 µM under setting [1] turned out to be 39%.

For `NS(=O)(=O)OC[C@H]1C[C@@H](Nc2ncncc2C(=O)c2ccn(C3(c4cccc(Cl)c4)CC3)c2)C[C@@H]1O` [Compound I-264, [(1R,2S,4R)-4-{[5-({1-[1-(3-Chlorophenyl)cyclopropyl]-1H-pyrrol-3-yl}carbonyl)pyrimidin-4-yl]amino}-2-hydroxycyclopentyl]methyl sulfamate], the IC50 was in the range of 0.01 to 0.1 µM. Moreover, under setting [1], the inhibition at 0.111 µM stood at 90%.

Take `NS(=O)(=O)OC[C@H]1C[C@@H](Nc2ncncc2C(=O)c2ccn(Cc3ccc(F)c(Br)c3)n2)[C@H](O)[C@@H]1O` [Compound I-290, {(1R,2R,3S,4R)-4-[(5-{[1-(3-bromo-4-fluorobenzyl)-1H-pyrazol-3-yl]carbonyl}pyrimidin-4-yl)amino]-2,3-dihydroxycyclopentyl}methyl sulfamate]: the IC50 is less than 0.01 µM. Further, under setting [1], the inhibition at 0.111 µM was determined as 99%.

As to `NS(=O)(=O)OC[C@H]1C[C@@H](Nc2ncncc2C(=O)c2ccn(Cc3cc(F)c(F)cc3F)n2)[C@H](O)[C@@H]1O` [Compound I-314, {(1R,2R,3S,4R)-2,3-dihydroxy-4-[(5-{[1-(2,4,5-trifluorobenzyl)-1H-pyrazol-3-yl]carbonyl}pyrimidin-4-yl)amino]cyclopentyl}methyl sulfamate], the IC50 is less than 0.01 µM. For the same compound, under setting [1], the inhibition at 0.111 µM came out at 97%.

`NS(=O)(=O)OC[C@H]1C[C@@H](Nc2ncncc2C(=O)c2ccn(Cc3ccc(OC(F)(F)F)cc3)n2)C[C@@H]1O` [Compound I-276, [(1R,2S,4R)-2-hydroxy-4-{[5-({1-[4-(trifluoromethoxy)benzyl]-1H-pyrazol-3-yl}carbonyl)pyrimidin-4-yl]amino}cyclopentyl]methyl sulfamate]: the IC50 was 0.01 to 0.1 µM. Under setting [1], the inhibition at 0.111 µM was found to be 82%.

For `NS(=O)(=O)OC[C@H]1C[C@@H](Nc2ncncc2C(=O)c2ccn(Cc3ccc(C(F)F)o3)c2)[C@@H](F)[C@@H]1O` [Compound I-87, [(1R,2R,3R,4R)-4-({5-[(1-{[5-(difluoromethyl)-2-furyl]methyl}-1H-pyrrol-3-yl)carbonyl]pyrimidin-4-yl}amino)-3-fluoro-2-hydroxycyclopentyl]methyl sulfamate], the IC50 was less than 0.01 µM. Moreover, under setting [1], the inhibition at 0.111 µM was greater than 99%.

Regarding `Cn1cccc(Cn2ccc(C(=O)c3cncnc3N[C@@H]3C[C@H](COS(N)(=O)=O)[C@@H](O)[C@@H]3F)c2)c1=O` [Compound I-216, [(1R,2R,3R,4R)-3-fluoro-2-hydroxy-4-{[5-({1-[(1-methyl-2-oxo-1,2-dihydropyridin-3-yl)methyl]-1H-pyrrol-3-yl}carbonyl)pyrimidin-4-yl]amino}cyclopentyl]methyl sulfamate], the IC50 is less than 0.01 µM. The inhibition at 0.111 µM under setting [1] is 97%.

Regarding `NS(=O)(=O)OC[C@H]1C[C@@H](Nc2ncncc2C(=O)c2ccn(Cc3ccncc3)n2)[C@H](O)[C@@H]1O` [Compound I-160, {(1R,2R,3S,4R)-2,3-dihydroxy-4-[(5-{[1-(pyridin-4-ylmethyl)-1H-pyrazol-3-yl]carbonyl}pyrimidin-4-yl)amino]cyclopentyl}methyl sulfamate], the half-inhibitory concentration (IC50) is 0.01 to 0.1 µM. Further, under setting [1], the inhibition at 0.111 µM amounted to 81%.

For the compound `NS(=O)(=O)OC[C@H]1C[C@@H](Nc2ncncc2C(=O)c2ccn(Cc3ccc(Cl)c(SC(F)(F)F)c3)n2)[C@H](O)[C@@H]1O` [Compound I-126, [(1R,2R,3S,4R)-4-({5-[(1-{4-chloro-3-[(trifluoromethyl)sulfanyl]benzyl}-1H-pyrazol-3-yl)carbonyl]pyrimidin-4-yl}amino)-2,3-dihydroxycyclopentyl]methyl sultamate], the IC50 was less than 0.01 µM. The inhibition at 0.111 µM under setting [1] is greater than 99%.

`NS(=O)(=O)OC[C@H]1C[C@@H](Nc2ncncc2C(=O)c2ccn(Cc3cccc(Br)c3)n2)C[C@@H]1O` [Compound I-11, {(1R,2S,4R)-4-[(5-{[1-(3-bromobenzyl)-1H-pyrazol-3-yl]carbonyl}pyrimidin-4-yl)amino]-2-hydroxycyclopentyl}methyl sulfamate]: the inhibition at 0.111 µM under setting [1] was found to be 100%.

Turning to `NS(=O)(=O)OC[C@H]1C[C@@H](Nc2ncncc2C(=O)c2ccn(Cc3ccc(F)c(Br)c3)n2)C[C@@H]1O` [Compound I-72, {(1R,2S,4R)-4-[(5-{[1-(3-bromo-4-fluorobenzyl)-1H-pyrazol-3-yl]carbonyl}pyrimidin-4-yl)amino]-2-hydroxycyclopentyl}methyl sulfamate], the IC50 is less than 0.01 µM. Also, under setting [1], the inhibition at 0.111 µM stood at 100%.

On to `NS(=O)(=O)OC[C@H]1C[C@@H](Nc2ccncc2C(=O)c2ccn(Cc3cccc(Cl)c3)n2)[C@@H](F)[C@@H]1O` [Compound I-242, {(1R,2R,3R,4R)-4-[(3-{[1-(3-chlorobenzyl)-1H-pyrazol-3-yl]carbonyl}pyridin-4-yl)amino]-3-fluoro-2-hydroxycyclopentyl}methyl sulfamate], for which the IC50 was less than 0.01 µM. In addition, under setting [1], the inhibition at 0.111 µM was 96%.

On to `C#Cc1cc(Cn2ccc(C(=O)c3cncnc3N[C@@H]3C[C@H](COS(N)(=O)=O)[C@@H](O)C3)n2)ccc1F` [Compound I-166, {(1R,2S,4R)-4-[(5-{[1-(3-ethynyl-4-fluorobenzyl)-1H-pyrazol-3-yl]carbonyl}pyrimidin-4-yl)amino]-2-hydroxycyclopentyl}methyl sulfamate], for which the IC50 is less than 0.01 µM. In addition, the inhibition at 0.111 µM under setting [1] is 98%.

Take `COC(C)c1cc(C(=O)c2cncnc2N[C@@H]2C[C@H](COS(N)(=O)=O)[C@@H](O)C2)nn1Cc1cccc(Br)c1` (single isomer, unassigned) [Compound I-369b, [(1R,2S,4R)-4-{[5-({1-(3-bromobenzyl)-5-[(1S)-1-methoxyethyl]-1H-pyrazol-3-yl}carbonyl)pyrimidin-4-yl]amino}-2-hydroxycyclopentyl]methyl sulfamate or [(1R,2S,4R)-4-{[5-({1-(3-bromobenzyl)-5-[(1R)-1-methoxyethyl]-1H-pyrazol-3-yl}carbonyl)pyrimidin-4-yl]amino}-2-hydroxycyclopentyl]methyl sulfamate]: the IC50 is less than 0.01 µM. In addition, the “Percent Inhibition” value under setting [1] turned out to be 98%.

Regarding `C[Si](C)(C)c1cccc(Cn2ccc(C(=O)c3cncnc3N[C@@H]3C[C@H](COS(N)(=O)=O)[C@@H](O)C3)n2)c1` [Compound I-137, [(1R,2S,4R)-2-hydroxy-4-{[5-({1-[3-(trimethylsilyl)benzyl]-1H-pyrazol-3-yl}carbonyl)pyrimidin-4-yl]amino}cyclopentyl]methyl sulfamate], the IC50 lay within 0.01 to 0.1 µM. Further, the inhibition at 0.111 µM under setting [1] stood at 78%.

Turning to `CSCCn1ccc(C(=O)c2cncnc2N[C@@H]2C[C@H](COS(N)(=O)=O)[C@@H](O)C2)n1` [Compound I-37, [(1R,2S,4R)-2-hydroxy-4-{[5-({1-[2-(methylsulfanyl)ethyl]-1H-pyrazol-3-yl}carbonyl)pyrimidin-4-yl]amino}cyclopentyl]methyl sulfamate], the IC50 lay within 0.1 to 1 µM. Further, the inhibition at 0.111 µM under setting [1] turned out to be 42%.

(Values after patent US9695154B2, “Heteroaryl inhibitors of sumo activating enzyme” (MILLENNIUM PHARMACEUTICALS, INC., priority 2013, dated 2017).)
